This note sets out measurements from patent US9926315B2, “Triazolopyridine compounds and methods for the treatment of cystic fibrosis” (Flatley Discovery Lab, LLC, priority 2014, dated 2018).

For the experiment, the target named is T1, human ΔF508-CFTR (Homo sapiens, UniProt P13569, DEL508-508).
T1 construct: expressed in transfected cells
In words: CFTR-YFP High Throughput Assay (HTS YFP flux assay, corrector / potentiator protocols). Type of experiment: cell-based. Particulars: FRT cells stably expressing human ΔF508-CFTR and YFP-H148Q/I152L; for Emax: normalized to positive control, read-out: Emax (% Efficacy, EMax normalized to the positive control). Here is the method:
Assays for Detecting and Measuring the Effect of Compounds on dF508-CFTR Channels CFRT-YFP High Throughput Assay: Corrector Assay:
The following protocol is designed to selectively screen small molecule compounds for F508del CFTR corrector activities in the HTS YFP flux assay. In this protocol, the cells are incubated with testing compounds for 24 hours, washed with PBS, stimulated with forskolin and a standard potentiator, and read on a 384-well HTS plate reader, such as the Hamamatsu FDDD-6000.
YFP fluorescence intensity is acquired at high speed before and after iodide buffer is injected to the assay cells. Iodide enters the cells via active CFTR channels in the plasma membrane, and quenches the YFP fluorescence. The rate of fluorescence quenching is proportionally related to the total CFTR activities in the cell membrane. dF508-CFTR corrector accelerates YFP quenching by increasing the number of CFTR molecules in the testing cell plasma membrane.
This method was initially developed for bench top plate readers (Galietta, 2001), and was adapted to the HTS format (Sui, 2010).
Fisher Rat Thyroid (FRT) cells stably expressing both human ΔF508-CFTR and a halide-sensitive yellow fluorescent protein (YFP-H148Q/I152L 25, 22) (Galietta, 2001) were cultured on plastic surface in Coon's modified Ham's F12 medium supplemented with FBS 10%, L-glutamine 2 mM, penicillin 100 U/mL, and streptomycin 100 μg/mL. G418 (0.75-1.0 mg/mL) and zeocin (3.2 μg/mL) were used for selection of FRT cells expressing ΔF508-CFTR and YFP. For primary screening, FRT cells were plated into 384-well black wall, transparent bottom microtiter plates (Costar; Corning Inc.) at a cell density of 20, 000-40, 000 per well. Test compound was applied to the cells at varying concentrations ranging from 2 nM-[…] in either a 2-fold or 3-fold dilution series. Cells were incubated in a cell culture incubator at 37° C. with 5% CO2 for 24-26 h. Assay plates were washed with DPBS media (Thermo, cat#SH30028.02) to remove unbound cells and compound. Stimulation media (25 μL) containing 20 μM Forskolin & 30 μM P3 [6-(Ethyl-phenyl-sulfonyl)-4-oxo-1, 4-dihydro-quinoline-3-carboxylic acid 2-methoxy-benzylamide] in Hams F-12 coon's modified media was added to the plate wells and incubated at room temperature for 60-120 min. 25 μL of HEPES-PBS-I buffer (10 mM HEPES, 1 mM MgCl2, 3 mM KCl, 1 mM CaCl2, 150 mM NaI) was then added and fluorescence quench curves (Excitation 500 nm/Emission 540 nm; exposure 136 ms) were immediately recorded on an FDSS-6000 plate reader (Hamamatsu). Quench rates were derived from least squares fitting of the data (Sui, 2010).
The following protocol is designed to selectively screen small molecule compounds for F508del CFTR potentiator activities in the HTS YFP flux assay. In this protocol, the cells are incubated at 27° C. for 24 hours with homogeneously boosted dF508-CFTR expression in the cell membrane by the low temperature, washed with PBS, stimulated with forskolin, and read on a 384-well HTS plate reader, such as the Hamamatsu […].
YFP fluorescence intensity is acquired at high speed before and after iodide buffer is injected to the assay cells. Iodide enters the cells via active CFTR channels in the plasma membrane, and quenches the YFP fluorescence. The rate of fluorescence quenching is proportionally related to the total CFTR activities in the cell membrane. dF508del-CFTR potentiators accelerate YFP quenching by increasing CFTR activities in the testing cell plasma membrane.
Fisher Rat Thyroid (FRT) cells stably expressing both human ΔF508-CFTR and a halide-sensitive yellow fluorescent protein (YFP-H148Q/I152L 25, 22) (Galietta, 2001) were cultured on plastic surface in Coon's modified Ham's F12 medium supplemented with FBS 10%, L-glutamine 2 mM, penicillin 100 U/mL, and streptomycin 100 μg/mL. G418 (0.75-1.0 mg/mL) and zeocin (3.2 μg/mL) were used for selection of FRT cells expressing ΔF508-CFTR and YFP. […]

T1 sequence (P13569 with tags, fused parts or gaps DEL508-508): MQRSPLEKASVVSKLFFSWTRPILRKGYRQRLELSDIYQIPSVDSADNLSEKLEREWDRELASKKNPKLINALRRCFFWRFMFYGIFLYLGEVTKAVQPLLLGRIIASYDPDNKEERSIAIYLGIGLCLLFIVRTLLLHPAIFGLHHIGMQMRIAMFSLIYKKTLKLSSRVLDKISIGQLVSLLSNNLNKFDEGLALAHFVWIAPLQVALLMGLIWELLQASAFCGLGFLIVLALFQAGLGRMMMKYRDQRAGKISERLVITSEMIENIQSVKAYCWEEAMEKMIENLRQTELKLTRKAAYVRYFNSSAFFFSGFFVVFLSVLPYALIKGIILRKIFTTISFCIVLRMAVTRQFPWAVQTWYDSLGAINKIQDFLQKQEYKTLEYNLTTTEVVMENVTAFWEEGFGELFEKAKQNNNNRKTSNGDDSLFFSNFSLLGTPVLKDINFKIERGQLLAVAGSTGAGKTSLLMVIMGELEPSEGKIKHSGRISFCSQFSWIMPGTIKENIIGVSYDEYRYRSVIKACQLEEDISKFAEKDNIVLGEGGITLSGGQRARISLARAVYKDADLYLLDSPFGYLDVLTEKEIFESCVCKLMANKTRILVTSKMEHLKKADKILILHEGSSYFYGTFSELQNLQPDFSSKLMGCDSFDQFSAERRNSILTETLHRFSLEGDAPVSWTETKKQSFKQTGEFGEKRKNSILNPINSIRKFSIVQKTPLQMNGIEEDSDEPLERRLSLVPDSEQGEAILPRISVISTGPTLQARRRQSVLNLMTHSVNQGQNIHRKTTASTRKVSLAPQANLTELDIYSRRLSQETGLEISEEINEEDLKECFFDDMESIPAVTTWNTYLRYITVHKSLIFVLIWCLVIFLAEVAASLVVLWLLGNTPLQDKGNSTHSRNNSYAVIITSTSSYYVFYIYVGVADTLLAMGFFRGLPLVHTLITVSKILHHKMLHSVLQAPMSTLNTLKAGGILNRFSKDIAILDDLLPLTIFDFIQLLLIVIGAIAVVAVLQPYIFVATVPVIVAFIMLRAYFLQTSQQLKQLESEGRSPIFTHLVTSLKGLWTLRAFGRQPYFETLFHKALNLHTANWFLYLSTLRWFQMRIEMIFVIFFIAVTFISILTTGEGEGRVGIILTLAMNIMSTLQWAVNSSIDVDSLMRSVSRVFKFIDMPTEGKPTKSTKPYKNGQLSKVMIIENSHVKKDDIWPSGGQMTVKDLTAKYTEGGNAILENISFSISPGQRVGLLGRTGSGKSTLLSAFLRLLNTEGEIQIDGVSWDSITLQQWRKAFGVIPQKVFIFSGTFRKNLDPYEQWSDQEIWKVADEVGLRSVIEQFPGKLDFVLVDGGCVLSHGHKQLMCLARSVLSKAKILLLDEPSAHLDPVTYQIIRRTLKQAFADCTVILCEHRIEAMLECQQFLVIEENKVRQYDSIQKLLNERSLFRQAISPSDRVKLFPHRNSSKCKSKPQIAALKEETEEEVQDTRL

`O=S(=O)(c1ccccc1)c1ccc2nnc(NCc3ccc(-c4ccccn4)cc3)n2c1` [Example 65]: the EC50 was less than 1000 nM and the Emax is more than 80%.
On the same counts, the results for `O=S(=O)(c1ccccc1)c1ccc2nnc(NCC(O)C3CCCCC3)n2c1` (stereo not shown) [Example 66] are less than 1000 nM and more than 80%.
For `O=S(=O)(c1ccccc1)c1ccc2nnc(NCC(O)COc3ccccc3)n2c1` (stereo not shown) [Example 67], the EC50 is less than 1000 nM and the Emax is more than 80%.
On the same counts, the results for `COC[C@@H](Nc1nnc2ccc(S(=O)(=O)c3ccccc3)cn12)c1ccccc1` [Example 68] are less than 1000 nM and more than 80%.
On the same counts, the results for `O=S(=O)(c1ccccc1)c1ccc2nnc(NC[C@H](O)C3CCCCC3)n2c1` [Example 69] are less than 1000 nM and more than 80%.
With `O=S(=O)(c1ccccc1)c1ccc2nnc(NC[C@H](O)c3ccccc3)n2c1` [Example 70], the EC50 was less than 1000 nM and the Emax was more than 80%.
On the same counts, the results for `COc1cccc(S(=O)(=O)c2ccc3nnc(N[C@H](C)c4ccccc4)n3c2)c1` [Example 71] are 1000 to 10000 nM and more than 80%.
The like results for `C[C@@H](Nc1nnc2ccc(S(=O)(=O)c3ccc(Cl)cc3)cn12)c1ccccc1` [Example 72] were, in that order, 1000 to 10000 nM and more than 80%.
On the same counts, the results for `O=S(=O)(c1ccccc1)c1ccc2nnc(NCC(O)C3CCCC3)n2c1` (stereo not shown) [Example 73] are less than 1000 nM and more than 80%.
On to `CC(C)(C)C(=O)OC(CNc1nnc2ccc(S(=O)(=O)c3ccccc3)cn12)C1CCCCC1` (stereo not shown) [Example 74], for which the EC50 is less than 1000 nM and the maximal effect (Emax) was more than 80%.
The like results for `O=S(=O)(c1ccccc1)c1ccc2nnc(NCC(O)c3ccc(F)cc3)n2c1` (stereo not shown) [Example 75] were, in that order, less than 1000 nM and more than 80%.
Take `O=S(=O)(c1ccccc1)c1ccc2nnc(NCCC3CCCCC3)n2c1` [Example 76]: the EC50 fell in the range of 1000 to 10000 nM and the Emax is more than 80%.
As for `CCOC(=O)OC(CNc1nnc2ccc(S(=O)(=O)c3ccccc3)cn12)C1CCCCC1` (stereo not shown) [Example 77], the EC50 was less than 1000 nM and the Emax is more than 80%.
The like results for `O=S(=O)(c1ccccc1)c1ccc2nnc(NCC(O)C3CCCCCC3)n2c1` (stereo not shown) [Example 78] were, in that order, less than 1000 nM and more than 80%.
The like results for `O=C(CNc1nnc2ccc(S(=O)(=O)c3ccccc3)cn12)C1CCCCC1` [Example 79] were, in that order, 1000 to 10000 nM and more than 80%.
The like results for `O=S(=O)(c1ccccc1)c1ccc2nc(NC3Cc4ccccc4C3)nn2c1` [Example 80, N-(2,3-dihydro-1H-inden-2-yl)-6-(phenylsulfonyl)-[1,2,4]triazolo[1,5-a]pyridin-2-amine] were, in that order, less than 1000 nM and more than 80%.
Take `C[C@@H](Nc1nc2ccc(S(=O)(=O)c3ccccc3)cn2n1)c1ccccc1` [Example 81]: the EC50 is less than 1000 nM and the Emax was more than 80%.
The like results for `O=S(=O)(c1ccccc1)c1ccc2nc(NCc3cccc(C(F)(F)F)c3)nn2c1` [Example 82] were, in that order, less than 1000 nM and more than 80%.
On the same counts, the results for `O=S(=O)(c1ccccc1)c1ccc2nc(NC[C@H](O)c3ccccc3)nn2c1` [Example 83] are less than 1000 nM and more than 80%.
On the same counts, the results for `O=S(=O)(c1ccccc1)c1ccc2nc(NCC(O)C3CCCCC3)nn2c1` (stereo not shown) [Example 84] are 1000 to 10000 nM and more than 80%.
As for `O=S(=O)(c1ccccc1)c1ccc2nc(NC[C@@H](O)c3ccccc3)nn2c1` [Example 85], the EC50 was less than 1000 nM and the Emax was more than 80%.
The like results for `O=S(=O)(c1ccccc1)c1ccc2nc(NCC3CC3)nn2c1` [Example 86] were, in that order, less than 1000 nM and more than 80%.
The like results for `O=C(CNc1nc2ccc(S(=O)(=O)c3ccccc3)cn2n1)C1CCCCC1` [Example 87] were, in that order, less than 1000 nM and more than 80%.
The like results for `O=S(=O)(c1ccccc1)c1ccc2nc(NCCC3CCCCC3)nn2c1` [Example 88] were, in that order, less than 1000 nM and more than 80%.
As for `Cc1ccc([C@@H](C)Nc2nc3ccc(S(=O)(=O)c4ccccc4)cn3n2)cc1` [Example 90], the EC50 fell in the range of 1000 to 10000 nM and the Emax fell in the range of 40 to 80%.
As to `O=C(c1ccc(CNc2nc3ccc(S(=O)(=O)c4ccccc4)cn3n2)cc1)N1CCC1` [Example 91], the EC50 is less than 1000 nM and the Emax was in the range of 40 to 80%.
Consider `O=S(=O)(c1ccccc1)c1ccc2nc(NCc3ccc(C4CCOCC4)cc3)nn2c1` [Example 92], for which the EC50 was 1000 to 10000 nM and the Emax was 40 to 80%.
On the same counts, the results for `CN1CCC(c2ccc(CNc3nc4ccc(S(=O)(=O)c5ccccc5)cn4n3)cc2)CC1` [Example 93] are less than 1000 nM and more than 80%.
On the same counts, the results for `O=S(=O)(c1ccccc1)c1ccc2nc(NCc3ccc(-c4ccccn4)cc3)nn2c1` [Example 94, 6-(phenylsulfonyl)-N-(4-(pyridin-2-yl)benzyl)-[1,2,4]triazolo[1,5-a]pyridin-2-amine] are less than 1000 nM and more than 80%.
As for `c1ccc(-c2ccc3nc(Nc4ccc(-c5ccccn5)cc4)nn3c2)cc1` [Example 100, 6-phenyl-N-(4-(pyridin-2-yl)phenyl)-[1,2,4]triazolo[1,5-a]pyridin-2-amine], the EC50 lay in the range of 1000 to 10000 nM and the Emax is 40 to 80%.
The like results for `O=S(=O)(c1ccc2nc(NCc3ccc4c(c3)OCO4)nn2c1)N1CCCCC1` [Example 101, N-(benzo[d][1,3]dioxol-5-ylmethyl)-6-(piperidin-1-ylsulfonyl)-[1,2,4]-triazolo[1,5-a]pyridin-2-amine] were, in that order, 1000 to 10000 nM and more than 80%.
On the same counts, the results for `Cc1ccc(CNc2nc3ccc(S(=O)(=O)N4CCCCC4)cn3n2)cc1` [Example 102] are less than 1000 nM and more than 80%.
